Several values for one entry are separate records, joined by “and”; a condition that tells them apart may be missing. Equal entries are not always repeated.
Tests used:
Assay type in all cases: functional
[1] = Antifungal activity against Bipolaris oryzae was measured as mycelial growth at 0.1 mg/mL concentration
[2] = Antifungal activity against Bipolaris oryzae was measured as mycelial growth at 0.5 mg/mL concentration
Curvularia lunata [3] = test: Antifungal activity against Curvularia lunata was measured as mycelial growth at 0.1 mg/mL concentration
Curvularia lunata [4] = test: Antifungal activity against Curvularia lunata was measured as mycelial growth at 0.5 mg/mL concentration
Fusarium oxysporum [5] = test: Antifungal activity against Fusarium oxysporum was measured as mycelial growth at 0.1 mg/mL concentration
Enterococcus faecalis [6] = test: Antibacterial activity against […] was measured as area of inhibition zone at 0.1 mg/mL concentration
Staphylococcus aureus [7] = test: Antibacterial activity against Staphylococcus aureus was measured as area of inhibition zone at 0.1 mg/mL concentration; conditions: for zone of inhibition at 100 µg/mL: Staphylococcus aureus
Pseudomonas aeruginosa [8] = test: Antibacterial activity against Pseudomonas aeruginosa was measured as area of inhibition zone at 0.1 mg/mL concentration; conditions: Pseudomonas aeruginosa
Fusarium oxysporum [9] = test: Antifungal activity against Fusarium oxysporum was measured as mycelial growth at 0.5 mg/mL concentration
Thanatephorus cucumeris [10] = test: Antifungal activity against Rhizoctonia solani was measured as mycelial growth at 0.1 mg/mL concentration
Thanatephorus cucumeris [11] = test: Antifungal activity against Rhizoctonia solani was measured as mycelial growth at 0.5 mg/mL concentration
Alternaria alternata [12] = test: Antifungal activity against Alternaria alternata was measured as mycelial growth at 0.1 mg/mL concentration
Alternaria alternata [13] = test: Antifungal activity against Alternaria alternata was measured as mycelial growth at 0.5 mg/mL concentration
[14] = Antifungal activity against Bipolaris oryzae was determined at 0.1 mg/mL concentration
[15] = Antifungal activity against Bipolaris oryzae was determined at 0.5 mg/mL concentration
Curvularia lunata [16] = test: Antifungal activity against Curvularia lunata was determined at 0.1 mg/mL concentration
Curvularia lunata [17] = test: Antifungal activity against Curvularia lunata was determined at 0.5 mg/mL concentration
Fusarium oxysporum [18] = test: Antifungal activity against Fusarium oxysporum was determined at 0.1 mg/mL concentration
Fusarium oxysporum [19] = test: Antifungal activity against Fusarium oxysporum was determined at 0.5 mg/mL concentration
Thanatephorus cucumeris [20] = test: Antifungal activity against Rhizoctonia solani was determined at 0.1 mg/mL concentration
Thanatephorus cucumeris [21] = test: Antifungal activity against Rhizoctonia solani was determined at 0.5 mg/mL concentration
Escherichia coli [22] = test: Antibacterial activity against Escherichia coli was determined at 0.1 mg/mL concentration
Escherichia coli [23] = test: Antibacterial activity against Escherichia coli was determined at 0.5 mg/mL concentration
Pseudomonas aeruginosa [24] = test: Antibacterial activity against Pseudomonas aeruginosa was determined at 0.1 mg/mL concentration
Enterococcus faecalis [25] = test: Antibacterial activity against […] was determined at 0.1 mg/mL concentration
Enterococcus faecalis [26] = test: Antibacterial activity against […] was determined at 0.5 mg/mL concentration
Staphylococcus aureus [27] = test: Antibacterial activity against Staphylococcus aureus was determined at 0.1 mg/mL concentration
Staphylococcus aureus [28] = test: Antibacterial activity against Staphylococcus aureus was determined at 0.5 mg/mL concentration
Pseudomonas aeruginosa [29] = test: Antibacterial activity against Pseudomonas aeruginosa was determined at 0.5 mg/mL concentration
Alternaria alternata [30] = test: Antifungal activity against Alternaria alternata was determined at 0.1 mg/mL concentration
Alternaria alternata [31] = test: Antifungal activity against Alternaria alternata was determined at 0.5 mg/mL concentration
[32] = Antibacterial activity against Escherichia coli was measured as area of inhibition zone at 0.1 mg/mL concentration

SMILES	Mycelial growth [1]	Mycelial growth [2]	Mycelial growth (Curvularia lunata [3])	Mycelial growth (Curvularia lunata [4])	Mycelial growth (Fusarium oxysporum [5])	zone of inhibition at 100 µg/mL (Enterococcus faecalis [6])	Inhibition Zone (Staphylococcus aureus [7])	Mycelial growth (Fusarium oxysporum [9])	Mycelial growth (Thanatephorus cucumeris [10])	Mycelial growth (Thanatephorus cucumeris [11])	Mycelial growth (Alternaria alternata [12])	Mycelial growth (Alternaria alternata [13])	inhibition at 100 µg/mL [14]	inhibition at 500 µg/mL [15]	inhibition at 100 µg/mL (Curvularia lunata [16])	inhibition at 500 µg/mL (Curvularia lunata [17])	inhibition at 100 µg/mL (Fusarium oxysporum [18])	inhibition at 500 µg/mL (Fusarium oxysporum [19])	inhibition at 100 µg/mL (Thanatephorus cucumeris [20])	inhibition at 500 µg/mL (Thanatephorus cucumeris [21])	also measured
Cc1nn(-c2ccc([N+](=O)[O-])cc2[N+](=O)[O-])cc1C(=O)OC(C)(C)C	5.5 cm	4.3 cm	6.7 cm	5.4 cm	7.8 cm	48 mm	7.3 cm	5.7 cm	9 cm	8.5 cm	6.2 cm	5.1 cm	38.9%	52.2%	25.6%	40%	13.3%	36.7%	0%	5.6%	zone of inhibition at 100 µg/mL (Staphylococcus aureus [7]): 84 mm; zone of inhibition at 100 µg/mL (Pseudomonas aeruginosa [8]): 0 mm; inhibition at 100 µg/mL (Escherichia coli [22]): 16.7%; inhibition at 500 µg/mL (Escherichia coli [23]): 52.2%; inhibition at 100 µg/mL (Pseudomonas aeruginosa [24]): 0%; inhibition at 100 µg/mL (Enterococcus faecalis [25]): 21.1%; inhibition at 500 µg/mL (Enterococcus faecalis [26]): 53.3%; inhibition at 100 µg/mL (Staphylococcus aureus [27]): 81.1%; inhibition at 500 µg/mL (Staphylococcus aureus [28]): 93.3%; inhibition at 500 µg/mL (Pseudomonas aeruginosa [29]): 0%; inhibition at 100 µg/mL (Alternaria alternata [30]): 31.1%; inhibition at 500 µg/mL (Alternaria alternata [31]): 43.3%
CCOC(=O)c1cn(-c2ccc([N+](=O)[O-])cc2[N+](=O)[O-])nc1CCl	5.9 cm	4.6 cm	6 cm	5.1 cm	6.8 cm	0 mm	8.3 cm	4.6 cm	9 cm	8.5 cm	6 cm	4.8 cm	34.4%	48.9%	33.3%	43.3%	24.4%	48.9%	0%	5.6%	zone of inhibition at 100 µg/mL (Staphylococcus aureus [7]): 69 mm; zone of inhibition at 100 µg/mL (Pseudomonas aeruginosa [8]): 0 mm; inhibition at 100 µg/mL (Escherichia coli [22]): 17.8%; inhibition at 500 µg/mL (Escherichia coli [23]): 51.1%; inhibition at 100 µg/mL (Pseudomonas aeruginosa [24]): 0%; inhibition at 100 µg/mL (Enterococcus faecalis [25]): 0%; inhibition at 500 µg/mL (Enterococcus faecalis [26]): 0%; inhibition at 100 µg/mL (Staphylococcus aureus [27]): 76.6%; inhibition at 500 µg/mL (Staphylococcus aureus [28]): 92.2%; inhibition at 500 µg/mL (Pseudomonas aeruginosa [29]): 0%; inhibition at 100 µg/mL (Alternaria alternata [30]): 33.3%; inhibition at 500 µg/mL (Alternaria alternata [31]): 46.7%
CCOC(=O)c1cn(-c2ccc([N+](=O)[O-])cc2[N+](=O)[O-])nc1-c1ccc(Cl)cc1	6.6 cm	3.9 cm	5.8 cm	4.8 cm	6.3 cm	49 mm	3.3 cm and 1.6 cm	4 cm	9 cm	7.2 cm	5.4 cm	4.2 cm	26.7%	56.7%	35.6%	46.7%	30%	55.6%	0%	20%	zone of inhibition at 100 µg/mL (Pseudomonas aeruginosa [8]): 0 mm; inhibition at 100 µg/mL (Escherichia coli [22]): 0%; inhibition at 500 µg/mL (Escherichia coli [23]): 52.2%; inhibition at 100 µg/mL (Pseudomonas aeruginosa [24]): 0%; inhibition at 100 µg/mL (Enterococcus faecalis [25]): 0%; inhibition at 500 µg/mL (Enterococcus faecalis [26]): 54.4%; inhibition at 100 µg/mL (Staphylococcus aureus [27]): 17.8%; inhibition at 500 µg/mL (Staphylococcus aureus [28]): 36.7%; inhibition at 500 µg/mL (Pseudomonas aeruginosa [29]): 0%; inhibition at 100 µg/mL (Alternaria alternata [30]): 40%; inhibition at 500 µg/mL (Alternaria alternata [31]): 53.3%
CCOC(=O)c1nn(-c2ccc([N+](=O)[O-])cc2[N+](=O)[O-])cc1C=O	3.5 cm	2.3 cm	5.6 cm	3.5 cm	4.3 cm	86 mm	7.7 cm	2.6 cm	6.8 cm	4.2 cm	3.8 cm	2.1 cm	61.1%	74.4%	37.8%	61.1%	52.2%	71.1%	24.4%	53.3%	Inhibition Zone [32]: 7.5 cm and 8.8 cm; zone of inhibition at 100 µg/mL ([32]; Escherichia coli): 73 mm; zone of inhibition at 100 µg/mL (Staphylococcus aureus [7]): 88 mm; inhibition at 100 µg/mL (Escherichia coli [22]): 81.1%; inhibition at 500 µg/mL (Escherichia coli [23]): 97.8%; inhibition at 100 µg/mL (Pseudomonas aeruginosa [24]): 0%; inhibition at 100 µg/mL (Enterococcus faecalis [25]): 83.3%; inhibition at 500 µg/mL (Enterococcus faecalis [26]): 95.6%; inhibition at 100 µg/mL (Staphylococcus aureus [27]): 85.6%; inhibition at 500 µg/mL (Staphylococcus aureus [28]): 97.8%; inhibition at 500 µg/mL (Pseudomonas aeruginosa [29]): 25.6%; inhibition at 100 µg/mL (Alternaria alternata [30]): 57.8%; inhibition at 500 µg/mL (Alternaria alternata [31]): 76.6%

Source: ChEMBL document CHEMBL1137069, “Design, synthesis and anti-microbial activity of 1H-pyrazole carboxylates” (2004)
